Source: ChEMBL document CHEMBL1201862, “PubChem BioAssay data set” (2004)
Active and inactive are the calls of the source.

Columns and labels:
Caspase-3 = molecular target: T1, Caspase-3 (Homo sapiens, UniProt P42574); assay: caspase-3 inhibitors as off-family protease, SAR follow-up, selectivity assay for SENP protease inhibitor project, biochemical, luminescence, set 2 (AID 588599); assay type: functional
T1 sequence (P42574 whole entry): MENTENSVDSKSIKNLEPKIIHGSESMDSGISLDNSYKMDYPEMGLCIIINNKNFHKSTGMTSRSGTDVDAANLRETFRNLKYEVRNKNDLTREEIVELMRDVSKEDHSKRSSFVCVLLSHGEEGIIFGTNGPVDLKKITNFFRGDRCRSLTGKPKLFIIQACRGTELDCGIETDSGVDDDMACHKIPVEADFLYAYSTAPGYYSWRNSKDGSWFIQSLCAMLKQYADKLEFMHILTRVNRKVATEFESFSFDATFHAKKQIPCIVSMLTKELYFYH

[1] = molecular target: T2, Sentrin-specific protease 8 (Homo sapiens, UniProt Q96LD8); assay: SENP8 protease inhibitors, SAR follow-up, biochemical, luminescence, set 2 (AID 588601); assay type: functional
T2 sequence (Q96LD8 whole entry): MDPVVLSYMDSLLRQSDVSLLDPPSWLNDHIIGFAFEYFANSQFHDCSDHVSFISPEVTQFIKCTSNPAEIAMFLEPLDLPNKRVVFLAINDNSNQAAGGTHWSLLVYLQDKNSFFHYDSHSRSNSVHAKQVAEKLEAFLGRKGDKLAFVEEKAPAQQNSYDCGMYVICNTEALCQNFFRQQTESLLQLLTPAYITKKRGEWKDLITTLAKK

[2] = molecular target: T3, Sentrin-specific protease 7 (Homo sapiens, UniProt Q9BQF6); assay: SENP7 protease inhibitors, SAR follow-up, biochemical, luminescence, set 2 (AID 588600); assay type: functional
T3 sequence (Q9BQF6 whole entry): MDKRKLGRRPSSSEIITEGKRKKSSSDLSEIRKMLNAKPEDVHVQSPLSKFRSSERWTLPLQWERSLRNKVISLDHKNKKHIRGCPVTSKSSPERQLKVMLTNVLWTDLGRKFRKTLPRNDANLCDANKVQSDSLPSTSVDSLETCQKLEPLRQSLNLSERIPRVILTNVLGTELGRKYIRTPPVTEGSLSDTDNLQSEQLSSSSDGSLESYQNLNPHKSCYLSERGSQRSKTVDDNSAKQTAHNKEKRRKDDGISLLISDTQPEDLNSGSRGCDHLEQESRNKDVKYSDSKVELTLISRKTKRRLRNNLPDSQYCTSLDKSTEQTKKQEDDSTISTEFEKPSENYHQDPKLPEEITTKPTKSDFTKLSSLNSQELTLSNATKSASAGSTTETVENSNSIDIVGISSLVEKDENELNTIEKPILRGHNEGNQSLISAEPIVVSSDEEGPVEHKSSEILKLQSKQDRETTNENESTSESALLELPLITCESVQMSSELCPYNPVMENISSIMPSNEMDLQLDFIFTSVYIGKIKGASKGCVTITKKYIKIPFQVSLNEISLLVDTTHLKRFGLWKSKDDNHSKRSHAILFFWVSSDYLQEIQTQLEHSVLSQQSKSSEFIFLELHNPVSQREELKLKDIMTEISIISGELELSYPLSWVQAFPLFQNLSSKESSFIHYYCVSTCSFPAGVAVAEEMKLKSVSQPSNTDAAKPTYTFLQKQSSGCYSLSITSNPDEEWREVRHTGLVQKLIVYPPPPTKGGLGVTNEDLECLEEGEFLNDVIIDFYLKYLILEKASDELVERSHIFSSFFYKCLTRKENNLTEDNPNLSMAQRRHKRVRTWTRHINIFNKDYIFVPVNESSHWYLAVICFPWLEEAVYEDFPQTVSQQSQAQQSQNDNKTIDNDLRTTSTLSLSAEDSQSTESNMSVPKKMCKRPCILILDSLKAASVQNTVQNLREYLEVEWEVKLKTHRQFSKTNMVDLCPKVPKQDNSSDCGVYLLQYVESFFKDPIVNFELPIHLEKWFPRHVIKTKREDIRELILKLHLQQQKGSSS

[3] = molecular target: T4, Sentrin-specific protease 6 (Homo sapiens, UniProt Q9GZR1); assay: SENP6 protease inhibitors, SAR follow-up, biochemical, luminescence, set 2 (AID 588598); assay type: functional
T4 sequence (Q9GZR1 whole entry): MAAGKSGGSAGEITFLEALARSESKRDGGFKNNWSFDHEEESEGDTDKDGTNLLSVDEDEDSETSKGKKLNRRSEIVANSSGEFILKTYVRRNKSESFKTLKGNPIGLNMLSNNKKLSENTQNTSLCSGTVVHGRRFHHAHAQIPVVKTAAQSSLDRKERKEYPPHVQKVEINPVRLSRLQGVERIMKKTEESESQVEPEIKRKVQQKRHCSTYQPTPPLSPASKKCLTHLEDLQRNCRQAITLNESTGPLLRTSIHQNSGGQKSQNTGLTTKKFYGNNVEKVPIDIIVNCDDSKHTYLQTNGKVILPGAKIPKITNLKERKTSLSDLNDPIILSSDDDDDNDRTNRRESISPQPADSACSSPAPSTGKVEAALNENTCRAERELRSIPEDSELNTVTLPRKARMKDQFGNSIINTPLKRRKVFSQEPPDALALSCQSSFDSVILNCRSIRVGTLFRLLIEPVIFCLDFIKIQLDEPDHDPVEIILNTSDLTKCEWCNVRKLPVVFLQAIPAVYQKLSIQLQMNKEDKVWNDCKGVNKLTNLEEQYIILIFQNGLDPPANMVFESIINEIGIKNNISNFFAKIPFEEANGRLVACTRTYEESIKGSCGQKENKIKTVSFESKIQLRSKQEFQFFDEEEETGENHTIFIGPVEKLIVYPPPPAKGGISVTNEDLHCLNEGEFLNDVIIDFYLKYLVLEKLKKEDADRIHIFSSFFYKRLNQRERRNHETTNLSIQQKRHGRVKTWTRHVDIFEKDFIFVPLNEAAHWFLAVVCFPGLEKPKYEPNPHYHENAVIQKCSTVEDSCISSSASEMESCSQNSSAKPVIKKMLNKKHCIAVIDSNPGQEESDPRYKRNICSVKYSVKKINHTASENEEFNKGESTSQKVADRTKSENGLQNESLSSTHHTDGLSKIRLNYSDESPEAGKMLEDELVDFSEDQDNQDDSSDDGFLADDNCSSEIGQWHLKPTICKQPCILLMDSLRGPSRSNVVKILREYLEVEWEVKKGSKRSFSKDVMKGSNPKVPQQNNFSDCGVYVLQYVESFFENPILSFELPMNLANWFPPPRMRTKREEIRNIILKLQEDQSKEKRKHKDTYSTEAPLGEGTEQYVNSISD

HEK293 [4] = assay: cytotoxicity in HEK293T NF-kB-Luc cells, SAR follow-up, cytotoxicity control for NF-kB activator project, cell-based, resazurin fluorescence (AID 493251); assay type: functional; conditions: Homo sapiens
Jurkat = assay: SAR Analysis of small molecule inhibitors of both B-cell and T-cell specific antigen receptor-induced NF-kB activation in a Jurkat cell line using a luminescence assay. [Related pubchem assays (depositor defined):AID435003, AID435022, AID465, AID489029]; assay type: functional, cell-based; conditions: Homo sapiens
HEK293 [5] = assay: SAR Analysis of small molecule inhibitors of both B-cell and T-cell specific antigen receptor-induced NF-kB activation in a HEK-293T cell line using a luminescence assay. [Related pubchem assays (depositor defined):AID435003, AID435022, AID465, AID489019, AID489029]; assay type: functional, cell-based; conditions: Homo sapiens
[6] = molecular target: T5, Heat shock factor protein 1 (Mus musculus, UniProt P38532); assay: inhibition of MG132-induced HSE-luciferase signal, confirmation, cell-based, NIH3T3, luminescence, dose retest (AID 2382); assay type: functional;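 note: NIH3T3 fibroblasts with HSF1-driven luciferase reporter stressed by proteasome inhibitor MG132; luminescence from HSF1-driven luciferase expression after 8 hours of MG132 stress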
T5 sequence (P38532 whole entry): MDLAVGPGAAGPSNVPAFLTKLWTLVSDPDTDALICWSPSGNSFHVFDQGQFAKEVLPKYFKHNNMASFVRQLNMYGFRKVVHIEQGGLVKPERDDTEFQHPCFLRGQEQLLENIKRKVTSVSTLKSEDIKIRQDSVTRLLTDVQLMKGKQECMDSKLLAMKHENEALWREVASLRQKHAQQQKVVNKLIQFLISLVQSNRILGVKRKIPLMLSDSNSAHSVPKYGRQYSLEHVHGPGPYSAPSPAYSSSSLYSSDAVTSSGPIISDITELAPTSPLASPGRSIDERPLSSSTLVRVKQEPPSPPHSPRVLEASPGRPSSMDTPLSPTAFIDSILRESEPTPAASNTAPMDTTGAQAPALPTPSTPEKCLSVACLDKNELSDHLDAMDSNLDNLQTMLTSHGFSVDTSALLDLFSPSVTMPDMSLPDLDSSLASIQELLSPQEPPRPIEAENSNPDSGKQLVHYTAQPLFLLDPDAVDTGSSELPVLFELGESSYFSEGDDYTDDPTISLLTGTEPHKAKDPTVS

[7] = inhibitors of intracellular T. cruzi replication, confirmation, NIH3T3 host cells, beta-gal luminescence (AID 2044); assay type: functional, cell-based;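 note: intracellular parasites grown in NIH/3T3 mouse fibroblasts as host cells; luminescent beta-galactosidase reporter signal from transgenic T. cruzi replicating inside host cells; inhibitors lower the luminescence signal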
[8] = cytotoxicity toward NIH3T3 fibroblasts, dose response, counter-screen, cell-based, ATP luminescence, mouse fibroblasts (AID 2010); assay type: functional;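 note: cells exposed to compound for about 90 hours before reading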
CHO = assay: cytotoxicity in TLR9-MyD88 CHO cells, dose response, cytotoxicity control for TLR9-MyD88 binding inhibitor project, cell-based, luminescence (AID 588339); assay type: functional, hamster; conditions: Cricetulus griseus;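 note: CHO cells stably coexpressing TLR9 and MyD88 fusions from primary screen; compound exposure lasted 48 hours before viability readout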
[9] = molecular target: T6, Replicative DNA helicase DnaB (Mycobacterium tuberculosis, UniProt P9WMR3); assay: DnaB intein splicing inhibitors, dose response, biochemical, cell-free fluorescence (AID 449749); assay type: functional
T6 sequence (P9WMR3 whole entry): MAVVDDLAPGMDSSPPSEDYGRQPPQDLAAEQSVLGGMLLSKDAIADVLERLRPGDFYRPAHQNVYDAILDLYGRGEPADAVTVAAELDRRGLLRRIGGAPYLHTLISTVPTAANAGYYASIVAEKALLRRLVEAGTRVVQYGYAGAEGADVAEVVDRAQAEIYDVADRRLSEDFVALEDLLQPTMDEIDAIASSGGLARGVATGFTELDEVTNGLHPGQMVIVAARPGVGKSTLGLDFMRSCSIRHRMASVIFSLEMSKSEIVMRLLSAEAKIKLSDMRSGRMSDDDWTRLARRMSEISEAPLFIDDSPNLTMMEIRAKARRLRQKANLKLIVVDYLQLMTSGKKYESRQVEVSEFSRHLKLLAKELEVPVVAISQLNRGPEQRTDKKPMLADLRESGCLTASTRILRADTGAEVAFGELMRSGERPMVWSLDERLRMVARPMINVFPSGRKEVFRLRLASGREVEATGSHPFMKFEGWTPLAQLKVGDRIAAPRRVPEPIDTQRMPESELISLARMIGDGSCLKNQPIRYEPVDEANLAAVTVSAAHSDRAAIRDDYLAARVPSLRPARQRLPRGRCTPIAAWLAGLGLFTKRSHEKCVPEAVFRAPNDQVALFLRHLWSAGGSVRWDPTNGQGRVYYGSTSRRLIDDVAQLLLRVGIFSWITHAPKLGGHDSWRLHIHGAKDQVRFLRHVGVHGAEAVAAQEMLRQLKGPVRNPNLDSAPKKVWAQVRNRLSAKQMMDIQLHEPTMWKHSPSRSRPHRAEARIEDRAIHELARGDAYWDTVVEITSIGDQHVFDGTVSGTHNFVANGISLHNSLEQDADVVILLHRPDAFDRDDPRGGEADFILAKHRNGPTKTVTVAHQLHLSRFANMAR

Protein RecA = molecular target: T7, Protein RecA (Mycobacterium tuberculosis, UniProt P9WHJ3); assay: Fluorescence Cell-Free Homogeneous Dose Retest to Identify Inhibitors of RecA-Intein Splicing Activity. [Related pubchem assays (depositor defined):AID2097, AID2223, AID489010, AID492950]; assay type: functional
T7 sequence (P9WHJ3 whole entry): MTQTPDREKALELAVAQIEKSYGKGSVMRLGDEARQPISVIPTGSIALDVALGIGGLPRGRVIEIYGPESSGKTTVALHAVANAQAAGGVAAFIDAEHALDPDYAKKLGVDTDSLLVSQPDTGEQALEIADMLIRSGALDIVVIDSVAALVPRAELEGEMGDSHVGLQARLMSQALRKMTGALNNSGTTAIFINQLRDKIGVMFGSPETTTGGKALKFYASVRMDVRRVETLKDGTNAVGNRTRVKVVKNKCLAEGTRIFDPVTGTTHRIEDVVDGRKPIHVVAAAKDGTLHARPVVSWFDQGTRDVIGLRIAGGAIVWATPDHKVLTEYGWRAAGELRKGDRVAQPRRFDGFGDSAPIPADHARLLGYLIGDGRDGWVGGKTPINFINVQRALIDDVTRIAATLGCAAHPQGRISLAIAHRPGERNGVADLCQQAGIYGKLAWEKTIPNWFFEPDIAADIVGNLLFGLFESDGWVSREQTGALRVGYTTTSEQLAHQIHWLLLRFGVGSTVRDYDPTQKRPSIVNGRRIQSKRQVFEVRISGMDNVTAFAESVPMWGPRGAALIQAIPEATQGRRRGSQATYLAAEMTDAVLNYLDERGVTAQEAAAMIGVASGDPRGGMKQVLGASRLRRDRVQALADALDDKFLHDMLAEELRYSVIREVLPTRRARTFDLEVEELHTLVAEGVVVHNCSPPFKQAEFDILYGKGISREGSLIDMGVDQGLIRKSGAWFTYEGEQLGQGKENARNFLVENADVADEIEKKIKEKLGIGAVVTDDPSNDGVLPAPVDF

Beta Lactamase = Beta Lactamase (Pseudomonas aeruginosa, UniProt Q932Y6); assay: beta-lactamase reporter inhibitor potency, dose response, artefact control for TLR9-MyD88 binding inhibitor project, BLA reporter cells, FRET fluorescence (AID 588341); assay type: cell-based;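 note: cell based assay in CHO-K1 cells stably expressing beta-lactamase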
Paired box protein Pax-8 = Paired box protein Pax-8 (Homo sapiens, UniProt Q06710); assay: inhibitors of PAX8-driven TPO luciferase reporter, dose response, RMG-I cells, cherry-pick (AID 687027); assay type: functional, cell-based;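 note: luciferase reporter driven by Pax8 target thyroperoxidase promoter measured by SteadyGlo luminescence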
Paired box protein Pax-8, sequence (Q06710 whole entry): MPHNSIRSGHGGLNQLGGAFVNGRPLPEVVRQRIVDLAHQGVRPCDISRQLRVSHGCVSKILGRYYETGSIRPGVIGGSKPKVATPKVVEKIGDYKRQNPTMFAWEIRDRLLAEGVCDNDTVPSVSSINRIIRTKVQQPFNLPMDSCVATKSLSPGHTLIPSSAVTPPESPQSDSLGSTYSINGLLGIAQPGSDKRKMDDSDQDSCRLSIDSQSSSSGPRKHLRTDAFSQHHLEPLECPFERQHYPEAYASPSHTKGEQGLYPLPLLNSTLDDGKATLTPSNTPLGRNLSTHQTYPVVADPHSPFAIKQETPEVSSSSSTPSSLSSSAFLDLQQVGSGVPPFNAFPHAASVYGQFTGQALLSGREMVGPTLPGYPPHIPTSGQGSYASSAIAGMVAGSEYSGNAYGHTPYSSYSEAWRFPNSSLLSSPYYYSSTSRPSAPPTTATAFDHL

Beta Lactamase, sequence (Q932Y6 whole entry): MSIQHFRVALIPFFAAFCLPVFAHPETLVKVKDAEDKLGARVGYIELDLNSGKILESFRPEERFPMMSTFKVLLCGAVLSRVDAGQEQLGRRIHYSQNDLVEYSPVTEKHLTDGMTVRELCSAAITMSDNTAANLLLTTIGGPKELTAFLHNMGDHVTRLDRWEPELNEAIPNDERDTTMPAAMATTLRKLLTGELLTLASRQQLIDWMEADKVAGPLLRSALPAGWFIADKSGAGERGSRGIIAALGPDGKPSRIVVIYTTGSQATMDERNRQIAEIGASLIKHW

CC(=O)Nc1ccc2nc(NC(=O)c3n[nH]c4ccccc34)sc2c1
IC50 (Caspase-3): 4.41 µM (active)
IC50 [1]: 40.3 µM (active)
IC50 [2]: > 99 µM (inactive)
IC50 [3]: > 99 µM (inactive)

Cc1ccc2cccc(N)c2n1
IC50 (HEK293 [4]): > 80 µM (inactive)
IC50 (Jurkat): > 79 µM (inactive)
IC50 (HEK293 [5]): > 79 µM (inactive)

Cn1c(=O)c([N+](=O)[O-])c(Cl)c2ccccc21
EC50 [6]: 4.3 µM (active)
EC50 [7]: 1.87 µM (active)
EC50 [8]: 3.97 µM (active)
IC50 (CHO): 1.18 µM (active)
AC50 [9]: 5.18 µM (active)
EC50 (Protein RecA): 4.25 µM (active)
IC50 (Beta Lactamase): 17.8 µM (inactive)
AC50 (Paired box protein Pax-8): 6.65 µM (active)
